# Experiments:
# Type in all cases: cell-based, human
# LN-229 and U87MG cells = experiment: Cell proliferation assay (MTS)
# Procedure: For transfection experiments, cells were seeded at a density of 4×10^5 cells/60 mm dish or 2.5×10^4 cells/well in 12-well plates, and transfected using Lipofectamine 2000 (Life Technologies, Grand Island, N.Y.) per manufacturer's instructions. SF3B2 and p63RhoGEF siRNAs and controls were purchased from Santa Cruz (Santa Cruz, Calif.), and were used at the final concentration of 10 nM. Human PPARα siRNA was the ON-TARGET plus SMART pool from Thermo Scientific Dharmacon (Lafayette, Colo.), and it was used at the final concentration of 100 nM. The PPARα […] WY146,43 was from Cayman Chemical (St. Louis, Mo.). For the transient transfection experiments, cells were seeded at a density of 4×10^5 cells/60 mm dish or 2.5×10^4 cells/well in 12-well plates, and transfected using Lipofectamine 2000 reagent (Life Technologies) per manufacturer's instructions.
# At 72 h after transfection, cells were incubated with medium containing 3-(4,5-dimethylthiazol-2-yl)-5-(3-carboxymethoxyphenyl)-2-(4-sulfophenyl)-2H-tetrazolium (MTS) reagent (Promega) diluted according to manufacturer's instructions. Cells were then incubated at 37° C. for 30-60 min and absorbance was measured at a wavelength of 490 nm using a Bio-Rad Benchmark Plus microplate reader.
# miR-3189-3p = experiment: qRT-PCR of miR-3189-3p expression in drug-treated LN-229 cells; conditions: for miR-3189-3p relative expression compared to untreated cells: LN-229, 48 h (FIG. 6E)
# Procedure: (§1) Quantitative RT-PCR: Total RNA was isolated using the miRVana miRNA extraction kit (Ambion, Austin, Tex., USA). RNA was reverse transcribed using the High Capacity cDNA Reverse Transcription kit for mRNAs or TaqMan assays for microRNAs (Applied Biosystems, Carlsbad, Calif.). Quantitative real-time PCR was performed in duplicate using a Roche LightCycler 480 Real-Time PCR System (Indianapolis, Ind., USA). Each sample was normalized using GAPDH or RNU6B control (ΔCt) and relative quantification of gene expression was calculated using the comparative Ct (2^−ΔΔCt) method, as described in (Eletto et al., (2008) J. Cell. Physiol. 216: 764-770; Pacifici et al., (2013) J. Cell. Physiol. 228: 1070-1075; Rom et al., (2010) FASEB J. 24: 2292-2300 incorporated herein by reference in their entireties). For the clinical samples relative quantification was represented as 1/ΔCt to maintain real differences in Ct values between samples.
# GDF15 mRNA [1] = experiment: qRT-PCR of GDF15 expression in drug-treated LN-229 cells
# Procedure: as §1
# (§2) To further analyze the effects of fenofibrate on this gene, the human glioblastoma cell lines, LN-229 and U87MG were exposed to 50 μM fenofibrate and monitored the expression of GDF15 at 24 and 48 h time points. […] Following the treatment, total RNA was extracted and subjected to quantitative real-time PCR (qRT-PCR) using GDF15-specific and GAPDH-specific primers. The results in FIG. 6A show a 60- and 35-fold up-regulation of GDF15 gene expression in the two cell lines.
# GDF15 mRNA [2] = experiment: qRT-PCR of GDF15 expression in fenofibrate-treated U87MG cells; conditions: 50 μM, 24 and 48 h time points
# Procedure: as §1
# as §2, with “The results in FIG. 6A show a 60- and 35-fold up-regulation of GDF15 gene expression in the two cell lines.” left out
# miR-3189-5p = experiment: qRT-PCR of miR-3189-5p expression in fenofibrate-treated LN-229 and U87MG cells; conditions: fenofibrate treatment, 48 h
# Procedure: as §1
# GDF15 [3] = experiment: Western blot of GDF15 protein in fenofibrate-treated LN-229 cells; conditions: LN-229, fenofibrate treatment
# Procedure: (§3) Western Blot Analysis: Cells were collected by gently scraping in the presence of PBS (Gibco, Life Technologies), followed by centrifugation and disruption of the cell pellet in lysis buffer (50 mM HEPES, pH 7.5, 150 mM NaCl, 1.5 mM MgCl2, 1 mM EGTA, pH 8.4, 10% glycerol, 1% Triton X-100, 1 mM PMSF, 1 mM sodium orthovanadate (NA3VO4), Phosphatase and Protease Inhibitor Cocktails (Sigma). Whole-cell lysates (30 to 70 μg) were separated on a 4-15% SDS-PAGE gel (Bio-Rad, Hercules, Calif.). GDF15 and E2F-1 antibodies were purchased from Cell Signaling Technology (Beverly, Mass.). The antibody to detect p63RhoGEF was obtained from GeneTex (Irvine, Calif.). GDF15 antibody was purchased from R&D Systems (Minneapolis, Minn.), and anti-GRB2 was from BD Transduction Laboratories (San Jose, Calif.). SF3B2 and 14-3-3ζ antibodies were obtained from Santa Cruz Biotechnology.
# GDF15 [4] = experiment: ELISA of secreted mature GDF15 in LN-229 culture medium; conditions: LN-229, 48 h following treatment
# Procedure: ELISA Assay: Mature GDF15 was detected in the cell culture medium using the GDF15 Quantikine ELISA kit from R&D Systems (Minneapolis, Minn.), according to the manufacturer's instructions. Sample absorbance was measured at 450 nm using a Bio-Rad Benchmark Plus microplate reader.
# Ago2 immunocomplexes = experiment: RNA-binding protein immunoprecipitation (RIP) with Ago2 antibody; conditions: extracts from FF-treated LN-229 cells
# Procedure: RNA-Binding Protein Immunoprecipitation (RIP): RIP assay was performed using Argonaute 2 (Ago2) antibody from Millipore (RIPAb+Ago2 RIP). This kit included negative control mouse IgG antibody and control primers specific for human FOS, which were utilized for the optimization of Ago2-IP in the cellular model. The RIP Ago-IP was performed essentially as previously described (Curtale et al., (2013) Proc. Nat. Acad. Sci. U.S.A. 110: 11499-11504). In brief, 10×10^6 LN-229 cells were used for Ago2-IP and for the IgG isotype control; 2×10^6 cells were used for the extraction of total RNA and for total protein lysates. The cell monolayer was washed twice with cold PBS, and lysed in 500 μl of Lysis Buffer (150 mM KCl, 25 mM Tris-HCl pH 7.4, 5 mM EDTA, 0.5% NP40, 5 mM DTT) supplemented with 10 mM Protease Inhibitor Cocktail, 10 mM PMSF, 10 mM Phosphatase Inhibitor, 10 mM Na3VO4 and 100 U/ml RNase Inhibitor (Applied Biosystems). After 30 min of incubation on ice, lysates were centrifuged for 30 min at 14,000 rpm at 4° C. in a microcentrifuge. 30 μL of Protein A/G Magnetic Beads (Pierce, Thermo Scientific, Waltham, Mass.) were washed three times with Blocking Solution (0.5% BSA dissolved in DPBS+/+) and incubated for 1 h at 4° C. with 5 μg of anti-Ago2 mouse monoclonal IgG1κ or with isotype IgG1κ control antibodies (Millipore). The immunocomplexes were washed three times with Blocking Solution. […]
# SF3B2 mRNA = experiment: qRT-PCR of SF3B2 mRNA in transfected LN-229 and U87MG cells; conditions: co-expressed with miR-3189-3p
# Procedure: as §1
# p63RhoGEF mRNA = experiment: qRT-PCR of p63RhoGEF mRNA in transfected LN-229 and U87MG cells; conditions: co-expressed with miR-3189-3p
# Procedure: as §1
# SF3B2 3′UTR = experiment: Dual luciferase assay, psiCHECK2/SF3B2 3′UTR in LN-229 cells; conditions: co-transfected with miR-3189-3p mimic
# From the text: (§4) Cloning for microRNA Functional Analysis: The genomic sequence corresponding to the 3′UTR of p63RhoGEF was PCR amplified from LN-229 cells. This PCR product was ligated into the multiple cloning sites downstream of the Renilla luciferase reporter gene in the psiCHECK-2 vector (Promega, Madison, Wis.). This vector also contains a firefly luciferase reporter sequence, which allows for normalization of transfection efficiency. The primers used were: forward, 5′-[…] (SEQ ID NO: 7), containing the XhoI restriction site (underlined) and reverse, 5′-[…] (SEQ ID NO: 8), containing the NotI restriction site (underlined). The genomic sequence corresponding to the 3′UTR of SF3B2 was also cloned into the psiCHECK-2 vector. The primers used were: forward, 5′-[…] (SEQ ID NO: 9), containing the XhoI restriction site (underlined) and reverse, 5′-[…] (SEQ ID NO: 10) containing the NotI restriction site (underlined).
# (§5) The oligonucleotides for the mutagenesis of p63RhoGEF sites were as follows: site 1 forward, 5′-[…] (SEQ ID NO: 11), site 2 forward, 5′-[…] (SEQ ID NO: 12), and site 3 forward, 5′-[…] (SEQ ID NO: 13). […]
# (§6) After 24 h, cells were harvested and lysates were assayed for luciferase activity with the Dual-Luciferase Reporter Assay System (Promega) using a Synergy 2 microplate reader (BioTek Instruments, Inc., Winooski, Vt.). […]
# p63RhoGEF 3′UTR = experiment: Dual luciferase assay, psiCHECK2/p63RhoGEF 3′UTR in LN-229 cells; conditions: co-transfected with miR-3189-3p mimic
# From the text: as §4, §5, §6
# E2F-1 = experiment: Western blot of E2F-1 protein in LN-229 cells; conditions: co-transfected with miR-3189-3p
# Procedure: as §3
# LN-229 cells = experiment: Rescue from fenofibrate-induced cell death; conditions: LN-229 cells treated with fenofibrate
# [5] = 48 h after treatment/transfection, with fenofibrate
compound,measurement,setting,value
"miR-3189-5p: mature microRNA of 25 nucleotides from the miR-3189 stem-loop (SEQ ID NO: 21) (GUUGCCCCAUCUGUGCCCUGGGUAGGA; listed as RNA, chemistry not fully specified)","changes in cell morphology, cell proliferation and migration",LN-229 and U87MG cells; transfection of LN-229 and U87MG cells,"did not elicit changes in cell morphology, nor inhibited cell proliferation and migration"
COc1cccc2c1C(=O)c1c(O)c3c(c(O)c1C2=O)C[C@@](O)(C(=O)CO)C[C@@H]3O[C@H]1C[C@H](N)[C@H](O)[C@H](C)O1 [doxorubicin],miR-3189-3p relative expression compared to untreated cells,miR-3189-3p,only in fenofibrate treated cells
"CC(C)OC(=O)C(C)(C)Oc1ccc(C(=O)c2ccc(Cl)cc2)cc1 [fenofibrate, propan-2-yl 2-{4-[(4-chlorophenyl)carbonyl]phenoxy}-2-methylpropanoate]",up-regulation of GDF15 gene expression,"GDF15 mRNA [1]; 50 μM, 24 and 48 h time points, LN-229",60 fold
same,GDF15 mRNA up-regulation relative to untreated cells,"GDF15 mRNA [1]; LN-229, 48 h, comparison with doxorubicin and paclitaxel (FIG. 6E)",more than 60 folds
same,up-regulation of GDF15 gene expression,GDF15 mRNA [2],35 fold
same,miR-3189-3p relative expression compared to untreated cells,miR-3189-3p,4.8 fold
same,expression of miR-3189-5p,miR-3189-5p,did not change
same,GDF15 protein content,GDF15 [3],large increase
same,secreted GDF15,GDF15 [4],significant levels
same,overexpression of miR-3189-3p linked to Ago2 immunocomplexes compared to untreated cells,Ago2 immunocomplexes,~35 fold
"Cc1cccc(Nc2cc(Cl)nc(SCC(=O)O)n2)c1C [WY146,43]",impact on GDF15 levels triggered by fenofibrate,GDF15 mRNA [1]; [5],no significant impact
same,impact on miR-3189-3p levels triggered by fenofibrate,miR-3189-3p; [5],no significant impact
"anti-miR-3189-3p: miR-3189-3p mirVana miRNA inhibitor (SEQ ID NO: 22) purchased from Life Technologies (UGCCCCAUCUGUGCCCUGGGUAGGA; listed as RNA, chemistry not given here)",changes in proliferation and cell cycle on co-transfection with miR-3189-3p,LN-229 and U87MG cells; co-transfected with miR-3189-3p,No significant changes
same,effect on miR-3189-3p downregulation of SF3B2 transcript,SF3B2 mRNA,counteracted
same,effect on miR-3189-3p downregulation of p63RhoGEF transcript,p63RhoGEF mRNA,counteracted
same,effect on miR-3189-3p inhibition of SF3B2 3′UTR reporter,SF3B2 3′UTR,almost completely alleviated
same,effect on miR-3189-3p inhibition of p63RhoGEF 3′UTR reporter,p63RhoGEF 3′UTR,efficiently reverted
same,effect on miR-3189-3p down-regulation of E2F-1,E2F-1,reversed
same,rescue from fenofibrate-induced cell death,LN-229 cells,did not rescue
CC(=O)O[C@H]1C(=O)[C@@]2(C)[C@H]([C@H](OC(=O)c3ccccc3)[C@]3(O)C[C@H](OC(=O)[C@H](O)[C@@H](NC(=O)c4ccccc4)c4ccccc4)C(C)=C1C3(C)C)[C@]1(OC(C)=O)CO[C@@H]1C[C@@H]2O [paclitaxel],miR-3189-3p relative expression compared to untreated cells,miR-3189-3p,only in fenofibrate treated cells

# From patent US10308939B2, “Use of an miRNA to reduce proliferation of a cancer cell” (Board of Supervisors of Louisiana State University and …, priority 2014, dated 2019)
